{"source": "ChEMBL document CHEMBL1145553", "about": "“Possible chemical mechanisms underlying the antitumor activity of S-deoxyleinamycin” (Bioorg Med Chem Lett, 2008)", "key": {"[1]": {"tested_on": "HepG2", "assay": "Growth inhibition of human HepG2 cells", "format": "functional"}, "[2]": {"tested_on": "HeLa", "assay": "Cytotoxicity against human HeLa S3 cells", "format": "functional, cell-based"}, "[3]": {"assay": "Cleavage of supercoiled pGL2 basic DNA assessed as nicked open circular form DNA level at 150 uM in presence of thiol"}, "[4]": {"assay": "Cleavage of supercoiled pGL2 basic DNA assessed as number of strand breaks per plasmid at 150 uM in presence of thiol"}, "[5]": {"assay": "Cleavage of thiol-mediated supercoiled pGL2 basic DNA assessed as number of strand breaks per plasmid at 150 uM in presence of 10 mM diethylenetriaminepentaacetic acid"}, "[6]": {"assay": "Cleavage of thiol-mediated supercoiled pGL2 basic DNA assessed as nicked open circular form DNA level at 150 uM in presence 50 ug/ml superoxide dismutase"}, "[7]": {"assay": "Cleavage of thiol-mediated supercoiled pGL2 basic DNA assessed as nicked open circular form DNA level at 150 uM in presence 100 ug/ml superoxide dismutase"}, "[8]": {"assay": "Cleavage of thiol-mediated supercoiled pGL2 basic DNA assessed as nicked open circular form DNA level at 150 uM in presence 1 M methanol"}, "[9]": {"assay": "Cleavage of thiol-mediated supercoiled pGL2 basic DNA assessed as number of strand breaks per plasmid at 150 uM in presence of 10 mM desferal"}, "[10]": {"assay": "Cleavage of supercoiled pGL2 basic DNA assessed as number of strand breaks per plasmid at 150 uM"}, "[11]": {"assay": "Cleavage of supercoiled pGL2 basic DNA assessed as nicked open circular form DNA level at 150 uM"}, "[12]": {"assay": "Cleavage of thiol-mediated supercoiled pGL2 basic DNA assessed as nicked open circular form DNA level at 150 uM in presence 100 ug/ml catalase"}, "[13]": {"assay": "Cleavage of thiol-mediated supercoiled pGL2 basic DNA assessed as number of strand breaks per plasmid at 150 uM in presence of 1 M ethanol"}, "[14]": {"assay": "Cleavage of thiol-mediated supercoiled pGL2 basic DNA assessed as number of strand breaks per plasmid at 150 uM in presence of 1 M DMSO"}, "[15]": {"assay": "Cleavage of thiol-mediated supercoiled pGL2 basic DNA assessed as number of strand breaks per plasmid at 150 uM in presence of 1 M methanol"}, "[16]": {"assay": "Cleavage of thiol-mediated supercoiled pGL2 basic DNA assessed as number of strand breaks per plasmid at 150 uM in presence of 100 ug/ml catalase"}, "[17]": {"assay": "Cleavage of thiol-mediated supercoiled pGL2 basic DNA assessed as nicked open circular form DNA level at 150 uM in presence 1 M ethanol"}, "[18]": {"assay": "Cleavage of thiol-mediated supercoiled pGL2 basic DNA assessed as nicked open circular form DNA level at 150 uM in presence 10 mM desferal"}, "[19]": {"assay": "Cleavage of thiol-mediated supercoiled pGL2 basic DNA assessed as nicked open circular form DNA level at 150 uM in presence […]"}, "[20]": {"assay": "Cleavage of thiol-mediated supercoiled pGL2 basic DNA assessed as nicked open circular form DNA level at 150 uM in presence 10 mM diethylenetriaminepentaacetic acid"}}, "data": [{"compound": "N[C@@H](Cc1ccc(N(CCCl)CCCl)cc1)C(=O)O", "note": "[MELPHALAN]", "values": [{"measurement": "GI50", "setting": "[1]", "value": 17000, "unit": "nM"}]}, {"compound": "C/C1=C\\[C@@H](O)C(=O)/C=C/C=C\\c2csc(n2)[C@@H](C)NC(=O)C[C@@]2(CC1)[S+]([O-])SC(=O)[C@]2(C)O", "note": "(stereo partly specified) [LEINAMYCIN]", "values": [{"measurement": "IC50", "setting": "[2]", "value": 27, "unit": "nM"}]}, {"compound": "O=c1ssc2ccccc12", "values": [{"measurement": "Activity", "setting": "[3]", "value": 33.1, "unit": "%"}, {"measurement": "Activity", "setting": "[4]", "value": 0.4}]}, {"compound": "CC1(O)C(=O)S[S+]([O-])C1(C)C", "note": "(stereo unspecified)", "values": [{"measurement": "Activity", "setting": "[3]", "value": 92.5, "unit": "%"}, {"measurement": "Activity", "setting": "[4]", "value": 2.58}]}, {"compound": "BLEOMYCIN", "values": [{"measurement": "GI50", "setting": "[1]", "value": 1000, "unit": "nM"}]}, {"compound": "C/C1=C\\[C@@H](O)C(=O)/C=C/C=C\\c2csc(n2)[C@@H](C)NC(=O)C[C@@]2(CC1)SSC(=O)[C@]2(C)O", "values": [{"measurement": "IC50", "setting": "[2]", "value": 4000, "unit": "nM"}]}, {"compound": "CC1(C)SSC(=O)C1(C)O", "note": "(stereo unspecified)", "values": [{"measurement": "Activity", "setting": "[3]", "value": 73.1, "unit": "%"}, {"measurement": "Activity", "setting": "[5]", "value": 0.21}, {"measurement": "Activity", "setting": "[6]", "value": 100, "unit": "%"}, {"measurement": "Activity", "setting": "[7]", "value": 100, "unit": "%"}, {"measurement": "Activity", "setting": "[8]", "value": 27.5, "unit": "%"}, {"measurement": "Activity", "setting": "[9]", "value": 0.3}, {"measurement": "Activity", "setting": "[4]", "value": 1.32}, {"measurement": "Activity", "setting": "[10]", "value": 0.2}, {"measurement": "Activity", "setting": "[11]", "value": 18.2, "unit": "%"}, {"measurement": "Activity", "setting": "[12]", "value": 19.3, "unit": "%"}, {"measurement": "Activity", "setting": "[13]", "value": 0.21}, {"measurement": "Activity", "setting": "[14]", "value": 0.17}, {"measurement": "Activity", "setting": "[15]", "value": 0.32}, {"measurement": "Activity", "setting": "[16]", "value": 0.21}, {"measurement": "Activity", "setting": "[17]", "value": 19, "unit": "%"}, {"measurement": "Activity", "setting": "[18]", "value": 25.9, "unit": "%"}, {"measurement": "Activity", "setting": "[19]", "value": 15.5, "unit": "%"}, {"measurement": "Activity", "setting": "[20]", "value": 19, "unit": "%"}]}]}
